The test system of the assay is 2C TCR mouse CD8+ T cells, vesicle binding, flow cytometry. In words: inhibitors of CD8+ T cell LFA-1/ICAM-1 adhesion – powder samples, single concentration, mouse 2C TCR, flow cytometry, confirmation (AID 504568).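 As to all read-outs here: lower values mean less vesicle binding and point to an inhibitor.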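 As to double-positive events (T cell-vesicle binding): the gate for binding is set so anti-LFA-1 blocked control wells show 10% double positives.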 As to conditions: stronger effect = lower value; for mean fluorescence percent response: measured here: CD8+ cell vesicle fluorescence mean.

Active and inactive are the calls of the source.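 The calls were made as follows: active = binding readouts below 60% of the midpoint between blocked and unblocked controls, with summed weighted score above 1; inactive = the rest.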

`COc1ccc(NC(=O)CSCC(=O)Nc2cccc(S(=O)(=O)N3CCCCCC3)c2)cc1`: the double-positive events (T cell-vesicle binding) was 21.7% and the mean fluorescence percent response stood at 136%.
The like results for `Cn1c(CNC(=O)CNC(=O)c2ccc(F)cc2)cc(=O)n(C)c1=O` were, in that order, 29.7% (inactive) and 165%.
The like results for `CC(=O)c1ccc(-c2csc(N3CCC(C(N)=O)CC3)n2)cc1` were, in that order, 26.5% (inactive) and 153%.
The corresponding values for `CCOCC(=O)Nc1ccc(S(=O)(=O)N2CCC(c3nc4ccccc4[nH]3)CC2)cc1` are 16.4% and 97.1%.
As to `O=C(Cn1cc(C(F)(F)F)cc(Cl)c1=O)NCCc1ccc(Cl)cc1Cl`, the double-positive events (T cell-vesicle binding) is 26.4% (inactive) and the mean fluorescence percent response turned out to be 136%.
As to `CCCc1nnc(NC(=O)c2ccc(S(=O)(=O)N(C)c3ccccc3OC)cc2)s1`, the double-positive events (T cell-vesicle binding) is 26.1% (inactive) and the mean fluorescence percent response stood at 131%.
The like results for `Cc1ccc(C(=O)NCCCN2CCOCC2)c(C)c1` were, in that order, 24.4% and 136%.
The corresponding values for `Cc1ccccc1C(=O)N1CCC(C(=O)Nc2ccc(C)c(S(=O)(=O)N3CCCCC3)c2)CC1` are 22.7% and 130%.
The like results for `Cc1ccc(NC(=O)COC(=O)CCc2c[nH]c3ccccc23)c(C)c1` were, in that order, 25.1% and 147%.
Regarding `CC(Sc1nc2ccccc2[nH]1)C(=O)NC1CCCCC1C` (configuration not stated), the double-positive events (T cell-vesicle binding) was 25.7% (inactive) and the mean fluorescence percent response was determined as 141%.
`O=C(CCC(=O)N1CCOCC1)NCc1cccc(C(F)(F)F)c1`: the double-positive events (T cell-vesicle binding) is 24.3% (inactive) and the mean fluorescence percent response turned out to be 133%.
For the compound `O=C1CC(c2nc3ccccc3[nH]2)CN1Cc1ccccc1` (configuration not stated), the double-positive events (T cell-vesicle binding) is 22.6% and the mean fluorescence percent response is 124%.
The like results for `COc1ccc(C2=Nc3cc(C)ccc3OC2)cc1` were, in that order, 26.7% (inactive) and 140%.
The corresponding values for `CCOC(=O)c1ccc(NC(=O)CN2C(=O)NC3(CCCCCCC3)C2=O)cc1` are 27.4% and 149%.
The corresponding values for `CCOC(=O)c1ccc(S(=O)(=O)N2CCN(C3CCCC3)CC2)cc1` are 23% (inactive) and 155%.
On to `COc1ccc(S(=O)(=O)N2CCCCC2)cc1NC(=O)c1cnc(C)cn1`, for which the double-positive events (T cell-vesicle binding) was 26.7% (inactive) and the mean fluorescence percent response worked out at 173%.
Regarding `CN(C)S(=O)(=O)c1cccc(-n2sc3ccccc3c2=O)c1`, the double-positive events (T cell-vesicle binding) is 17.7% and the mean fluorescence percent response was 109%.
The like results for `Cc1ccc(S(=O)(=O)N2CCN(S(=O)(=O)N(C)C)CC2)c(C)c1` were, in that order, 24.7% and 139%.
Consider `Cc1cccc(NC(=O)C2CCN(S(=O)(=O)c3c(C)[nH]c(=O)[nH]c3=O)CC2)c1`, for which the double-positive events (T cell-vesicle binding) was 27.4% (inactive) and the mean fluorescence percent response worked out at 161%.
The corresponding values for `CCN(CC)CCNC(=O)CCCNC(=O)Cn1cnc2sc(C)c(C)c2c1=O` are 30.9% (inactive) and 196%.
The like results for `O=C(NNS(=O)(=O)c1ccc2ccccc2c1)c1cccs1` were, in that order, 23.5% (inactive) and 149%.
The corresponding values for `COc1ccc(NC(=O)CC2C(=O)N(Cc3ccccc3)C(=S)N2CCN2CCOCC2)cc1` (configuration not stated) are 28.8% (inactive) and 149%.
For the compound `CCN(CC)S(=O)(=O)c1ccc(Cl)c(NC(=O)COC(=O)C2CCCCC2)c1`, the double-positive events (T cell-vesicle binding) is 14.5% and the mean fluorescence percent response amounted to 126%.
With `COc1ccc(CNC(=O)c2cccnc2SC)cc1OC`, the double-positive events (T cell-vesicle binding) was 26.7% (inactive) and the mean fluorescence percent response was found to be 163%.
The like results for `CCOC(=O)C1CCCN(S(=O)(=O)c2ccc(F)c(C(=O)Nc3ccc(F)c(F)c3)c2)C1` (configuration not stated) were, in that order, 22.4% and 162%.
The corresponding values for `O=C(NCCC1=CCCCC1)C(=O)NCC(c1ccco1)N1CCN(c2ccccc2F)CC1` (configuration not stated) are 26.1% (inactive) and 116%.
Regarding `Cc1cc(Cl)c(OCCCSc2nc(C)cc(=O)[nH]2)c(Br)c1`, the double-positive events (T cell-vesicle binding) is 25% and the mean fluorescence percent response worked out at 126%.
The like results for `O=C(CC1=NCCNC(c2ccccc2)C1)c1ccccc1O` (configuration not stated) were, in that order, 28% (inactive) and 170%.
The corresponding values for `CC1CCCCC1NC(=O)COC(=O)c1ccc2ncsc2c1` (configuration not stated) are 19.9% and 111%.
The corresponding values for `COc1ccc(N2CC(C(=O)NC(C)C(=O)NCc3ccccc3OC)CC2=O)cc1` (configuration not stated) are 27.3% (inactive) and 177%.
As to `COc1ccc([N+](=O)[O-])cc1NC(=O)c1ccc(N(Cc2ccccc2C)S(C)(=O)=O)cc1`, the double-positive events (T cell-vesicle binding) was 23% and the mean fluorescence percent response is 105%.
The corresponding values for `COc1ccccc1NS(=O)(=O)c1cc(NC(=O)CNC(=O)c2cc(C)cc(C)c2)ccc1C` are 27.3% (inactive) and 153%.
The like results for `COCc1c(C(=O)Nc2cccc(S(=O)(=O)N3CCCCC3)c2)oc2ccccc12` were, in that order, 14.8% and 104%.
The like results for `Cc1ccc(Cn2c([N+](=O)[O-])cnc2C)cc1` were, in that order, 23.1% and 153%.
Regarding `Cc1ncc([N+](=O)[O-])n1Cc1cccc(F)c1`, the double-positive events (T cell-vesicle binding) was 28.5% (inactive) and the mean fluorescence percent response is 152%.
The corresponding values for `O=C(c1ccc(N2C(=O)C3CC=C(Cl)CC3C2=O)cc1)N1CCCCC1` (configuration not stated) are 22.8% (inactive) and 130%.
The like results for `CCOC(=O)c1c(N2C(=O)CC(Sc3ccccc3C(=O)O)C2=O)sc2c1CCCC2` (configuration not stated) were, in that order, 9.25% and 59.9%.
The corresponding values for `CN(CC(=O)Nc1cc(S(=O)(=O)N2CCCC2)ccc1Cl)Cc1ccc2c(c1)OCO2` are 20.9% and 123%.
Regarding `O=C(CS(=O)(=O)Cc1ccccc1)N1CCc2ccccc21`, the double-positive events (T cell-vesicle binding) was 25.6% (inactive) and the mean fluorescence percent response is 159%.
On to `CN(C)S(=O)(=O)c1ccc(C(=O)NCCc2ccco2)cc1`, for which the double-positive events (T cell-vesicle binding) was 22.8% and the mean fluorescence percent response came to 122%.
The corresponding values for `CCCNC(=O)c1nc2ncc(Br)cn2n1` are 25.8% (inactive) and 154%.
As to `CCOc1ccc(-c2nc(N)ncc2-c2ccccc2)c(O)c1`, the double-positive events (T cell-vesicle binding) was 20.9% and the mean fluorescence percent response came out at 126%.
For the compound `COCCCN1CCc2[nH]c(=S)[nH]c(=O)c2C1`, the double-positive events (T cell-vesicle binding) was 28% (inactive) and the mean fluorescence percent response turned out to be 169%.
The like results for `CCN(CC)C(=O)N1CCN(S(=O)(=O)c2ccc(C)cc2)CC1` were, in that order, 26% (inactive) and 129%.
The like results for `Cc1cc(C)n(C(=O)c2sc3cc(F)ccc3c2Cl)n1` were, in that order, 24.5% and 90.2%.
`CC(=O)Nc1ccc(S(=O)(=O)NC2CCSc3ccccc32)cc1` (configuration not stated): the double-positive events (T cell-vesicle binding) is 23.2% (inactive) and the mean fluorescence percent response stood at 120%.
The like results for `Cc1ccc(N2CC(C(=O)NC3=NCCS3)CC2=O)cc1` (configuration not stated) were, in that order, 21.9% (inactive) and 161%.
The corresponding values for `COC(=O)c1ccccc1NC(=O)C1CCN(C(=O)c2cc(OC)cc(OC)c2)CC1` are 29.9% (inactive) and 172%.
The like results for `Cc1ccc(S(=O)(=O)N2CCN(C(=O)CNC(=O)c3ccc(Cl)cc3)CC2)cc1` were, in that order, 29.6% (inactive) and 165%.
On to `CCCCn1nc(C(=O)N2CCN(S(=O)(=O)c3ccccc3)CC2)c2ccccc2c1=O`, for which the double-positive events (T cell-vesicle binding) was 28.1% (inactive) and the mean fluorescence percent response came out at 145%.
The like results for `CN1CCN(S(=O)(=O)c2cccc(C(=O)Nc3cc(C(F)(F)F)ccc3N3CCCCC3)c2)CC1` were, in that order, 21.7% and 105%.
The like results for `CCC(C(=O)Nc1ccccc1)c1ccccc1` (configuration not stated) were, in that order, 24.6% and 131%.
The corresponding values for `CCC1(C)NC(=O)N(CC(=O)N2N=C(c3ccccc3)CC2c2ccc(OC)cc2)C1=O` (configuration not stated) are 24% (inactive) and 144%.
With `O=C(NCCN1CCN(c2ccccc2)CC1)c1cccc(Br)c1`, the double-positive events (T cell-vesicle binding) was 24.2% (inactive) and the mean fluorescence percent response is 152%.
The corresponding values for `O=C(O)C1CCC(Cn2c(SCc3cc(=O)n4cc(Cl)ccc4n3)nc3ccsc3c2=O)CC1` (configuration not stated) are 19.5% and 128%.
The corresponding values for `CN1CCN(S(=O)(=O)c2ccc(C(=O)Nc3ccccc3)cc2)CC1` are 26.1% (inactive) and 138%.

For the origin of these results see PubChem BioAssay AID504568 (NMMLSC, 2011).
